Measurements as given in US11472766B2, “Lipid nanoparticle composition” (Suzhou Abogen Biosciences Co., Ltd., priority 2020, dated 2022).

Legend:
[1] = test system: human erythropoietin (hEPO) mRNA; assay: Animal study: hEPO expression after tail vein injection of LNPs encapsulating hEPO mRNA (serum ELISA); format: in vivo; settings: hEPO level, female ICR mice, 0.5 mg/kg, 6 hours post administration; for Expression at 6 h (μg/ml): class symbols, Table 3
Method in brief: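 Female ICR mice (6-8 weeks) received LNPs carrying hEPO mRNA by tail vein injection at 0.5 mg/kg, with MC3 LNPs dosed the same way as positive control. Blood was drawn at set times (e.g., 6 h) and serum separated. hEPO was quantified by ELISA and reported as μg/ml.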

[2] = Apparent pKa of LNP formulations (TNS fluorescence assay); settings: LNP cationic lipid/DSPC/cholesterol/DMG-PEG 50/10/38.5/1.5 mol %
Protocol: The apparent pKa of each formulation was determined using an assay based on fluorescence of 2-(p-toluidino)-6-napthalene sulfonic acid (TNS). LNP formulations comprising of cationic lipid/DSPC/cholesterol/DMG-PEG (50/10/38.5/1.5 mol %) in PBS were prepared as described above. TNS was prepared as a 300 uM stock solution in distilled water. LNP formulations were diluted to 0.1 mg/ml total lipid in 3 mL of buffered solutions containing 50 mM sodium citrate, 50 mM sodium phosphate, 50 mM sodium borate, and 30 mM sodium chloride where the pH ranged from 3 to 9. An aliquot of the TNS solution was added to give a final concentration of 0.1 mg/ml and following vortex mixing fluorescence intensity was measured at room temperature in a Molecular Devices Spectramax iD3 spectrometer using excitation and mission wavelengths of 325 nm and 435 nm. A sigmoidal best fit analysis was applied to the fluorescence data and the pKa value was measured as the pH giving rise to half-maximal fluorescent intensity.

[3] = Lipid nanoparticle size by dynamic light scattering (Malvern Zetasizer Nano ZS); format: physicochemical; settings: LNP: cationic lipid/DSPC/cholesterol/PEG-lipid 50:10:38.5:1.5, hEPO mRNA
Method in brief: (§1)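 Ribogreen fluorescence quantifies encapsulated mRNA and backscatter (173°) DLS sizes the particles. These are microfluidically mixed four-component LNPs in DPBS after dialysis.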

[4] = Encapsulation efficiency of lipid nanoparticles (Quant-it Ribogreen RNA quantification assay); format: physicochemical; settings: LNP encapsulating hEPO mRNA
Method in brief: as §1

Apparant Pka ([2]; Table 3)	polydispersity ([3]; Table 3)	size nm ([3]; Table 3) [nm]	Encapsulation Efficiency ([4]; Table 3) [%]	Structure (SMILES)	Expression at 6 h (μg/ml) [1]	Expression at 6 h ([1]; Table 2) [µg/mL]	Apparant Pka ([2]; Table 2)	polydispersity ([3]; Table 2)	size nm ([3]; Table 2) [nm]	Encapsulation Efficiency ([4]; Table 2) [%]
6.72	0.157	76.79	95.2	CCCCCCCCC(CCCCCC)CC(=O)NCCCCCN(CCCCCOC(=O)CC(CCCCCC)CCCCCCCC)CCN(CCO)C1CC1 (stereo not shown) [Compound 117]	A (≥2)					
6.523	0.057	62.72	98.9	CCCCCCCCC(CCCCCC)CNC(=O)CCCCCN(CCCCCC(=O)NCC(CCCCCC)CCCCCCCC)CCN(CCO)C1CCC1 (stereo not shown) [Compound 118]	A (≥2)					
6.264	0.1	59.78	97.1	CCCCCCCCC(CCCCCC)CNC(=O)CCCCCN(CCCCCC(=O)NCC(CCCCCC)CCCCCCCC)CCN(CCO)C1CCCCC1 (stereo not shown) [Compound 120]	B (≥1 and <2)					
7.048	0.044	57.81	89.4	CCCCCCCCC(CCCCCC)CNC(=O)NCCCCN(CCCCNC(=O)NCC(CCCCCC)CCCCCCCC)CCN(CCO)C1CCCCC1 (stereo not shown) [Compound 122]	A (≥2)					
6.984	0.061	64.66	96.9	CCCCCCCCC(CCCCCC)COC(=O)NCCCCN(CCCCNC(=O)OCC(CCCCCC)CCCCCCCC)CCN(CCO)C1CCCCC1 (stereo not shown) [Compound 124]	A (≥2)					
6.833	0.116	72.36	95.6	CCCCCCCCC(CCCCCC)COC(=O)NCCCCN(CCCCNC(=O)OCC(CCCCCC)CCCCCCCC)CCN(CCO)C1CCCC1 (stereo not shown) [Compound 125]	A (≥2)					
6.668	0.083	109.90	90.6	CCCCCCCCC(CCCCCC)CNC(=O)CCCCCN(CCCCCC(=O)OCC(CCCCCC)CCCCCCCC)CCN(CCC)C1CCC(O)CC1 (stereo not shown) [Compound 133]	A (≥2)					
6.442	0.033	105.50	87.9	CCCCCCCCC(CCCCCC)CNC(=O)CCCCCN(CCCCCC(=O)NCC(CCCCCC)CCCCCCCC)CCN(CCO)C1CC(O)C1 (stereo not shown) [Compound 134]	A (≥2)					
6.652	0.035	104.1	85.6	CCCCCCCCC(CCCCCC)CNC(=O)CCCCCN(CCCCCC(=O)NCC(CCCCCC)CCCCCCCC)CCN(CCC)C1CCC(O)CC1 (stereo not shown) [Compound 135]	C (≥0.1 and <1)					
6.751	0.029	60.84	95.29	CCCCCCCCC(CCCCCCCC)CNC(=O)CCCCCN(CCCCCC(=O)NCC(CCCCCCCC)CCCCCCCC)CCN(CCO)C1CCCCC1 [Compound 137]	A (≥2)					
6.688	0.013	63.52	94.50	CCCCCCCCC(CCCCCCCC)CNC(=O)CCCCCN(CCCCCC(=O)OCC(CCCCCCCC)CCCCCCCC)CCN(CCO)C1CCCCC1 [Compound 138]	A (≥2)					
6.518	0.052	67.31	92.64	CCCCCCCCC(CCCCCCCC)CNC(=O)CCCCCN(CCCCCC(=O)OCC(CCCCCCCC)CCCCCCCC)CCN(CCO)C1CCCCCC1 [Compound 139]	A (≥2)					
6.981	0.075	138.7	83.4	CCCCCCC(CCCCCC)CNC(=O)CCCCCN(CCCCCC(=O)OCC(CCCCCC)CCCCCC)CCN(CCO)C1CCCC1 [Compound 140]	A (≥2)					
6.766	0.036	71.93	89.1	CCCCCCC(CCCCCC)CNC(=O)CCCCCN(CCCCCC(=O)OCC(CCCCCC)CCCCCC)CCN(CCO)C1CCCCCC1 [Compound 141]	A (≥2)					
6.678	0.027	81.13	85.3	CCCCCCC(CCCCCC)CC(=O)NCCCCCN(CCCCCOC(=O)CC(CCCCCC)CCCCCC)CCN(CCO)C1CCCCCC1 [Compound 142]	A (≥2)					
6.836	0.032	58.61	93.2	CCCCCCCCC(CCCCCCCC)CC(=O)NCCCCCN(CCCCCOC(=O)CC(CCCCCCCC)CCCCCCCC)CCN(CCO)C1CCCC1 [Compound 143]	A (≥2)					
6.794	0.035	64.08	95.0	CCCCCCCCC(CCCCCCCC)CC(=O)NCCCCCN(CCCCCNC(=O)CC(CCCCCCCC)CCCCCCCC)CCN(CCO)C1CCCCCC1 [Compound 144]	A (≥2)					
6.634	0.04	61.5	93.1	CCCCCCCCC(CCCCCCCC)CC(=O)NCCCCCN(CCCCCOC(=O)CC(CCCCCCCC)CCCCCCCC)CCN(CCO)C1CCCCCC1 [Compound 145]	A (≥2)					
7.496	0.052	66.27	94.6	CCCCCCCCCCCOC(=O)CCCCCN(CCCCCC(=O)NCC(CCCCCCCC)CCCCCCCC)CCN(CCO)C1CCC1 [Compound 146]	B (≥1 and <2)					
7.304	0.082	69.58	91.4	CCCCCCCCCCCOC(=O)CCCCCN(CCCCCC(=O)NCC(CCCCCCCC)CCCCCCCC)CCN(CCO)C1CCCC1 [Compound 147]	A (≥2)					
7.146	0.046	83.84	85.6	CCCCCCCCCCCOC(=O)CCCCCN(CCCCCC(=O)NCC(CCCCCCCC)CCCCCCCC)CCN(CCO)C1CCCCC1 [Compound 148]	A (≥2)					
6.810	0.07	72.85	86.3	CCCCCCCCCCCOC(=O)CCCCCN(CCCCCC(=O)NCC(CCCCCCCC)CCCCCCCC)CCN(CCO)C1CCCCCC1 [Compound 149]	B (≥1 and <2)					
6.918	0.06	66.33	93.5	CCCCCCCCOC(CCCCCN(CCCCCC(=O)NCC(CCCCCC)CCCCCC)CCN(CCO)C1CCC1)OCCCCCCCC [Compound 150]	A (≥2)					
6.948	0.061	73.86	94.0	CCCCCCCCCCCOC(=O)CCCCCN(CCCCCC(=O)NCC(CCCCCCCC)CCCCCCCC)CCN(CCO)C1CC1 [Compound 151]	C (≥0.1 and <1)					
6.686	0.026	92.17	88.2	CCCCCCC(CCCCCC)CC(=O)NCCCCCN(CCCCCOC(=O)CC(CCCCCC)CCCCCC)CCN(CCO)C1CCCCC1 [Compound 152]	A (≥2)					
6.621	0.059	107.4	85.5	CCCCCCC(CCCCCC)CC(=O)NCCCCCN(CCCCCOC(=O)CC(CCCCCC)CCCCCC)CCN(CCO)C1CC1 [Compound 153]	A (≥2)					
6.836	0.068	104.8	88.4	CCCCCCC(CCCCCC)CC(=O)NCCCCCN(CCCCCOC(=O)CC(CCCCCC)CCCCCC)CCN(CCO)C1CCCC1 [Compound 154]	A (≥2)					
6.797	0.035	64.39	98.4	CCCCCCCCC(CCCCCC)COC(=O)NCCCCN(CCCCNC(=O)OCC(CCCCCC)CCCCCCCC)CCN(CCO)C1CCC1 (stereo not shown) [Compound 155]	B (≥1 and <2)					
				CCCCCCCCC(CCCCCC)COC(=O)CCCCCN(CCCCCC(=O)OCC(CCCCCC)CCCCCCCC)CCNCCO (stereo not shown) [Compound A]		0.01	6.96	0.108	58.5	100.0
